Source: ChEMBL document CHEMBL1255230, “Chemical inhibitor of nonapoptotic cell death with therapeutic potential for ischemic brain injury” (Nat Chem Biol, 2005)
Activity calls are given as the source filed them. No cut-off for these calls is given here.

Tests used:
[1] = Inhibition of death receptor signaling mediated necroptotic cell death in mouse 3T3 cells assessed as decreased levels of PE-conjugated autophagy marker LC3-II after 24 hrs by Western blot method in presence of rapamycin; format: cell-based; conditions: NIH3T3
Jurkat [2] = assay: Effect on apoptosis in human Jurkat cell assessed as nuclear fragmentation by electron microscopy in presence of FasL and CHX; format: functional, cell-based
Jurkat [3] = assay: increase in intracellular ROS level in human Jurkat cells; format: functional, cell-based
[4] = Inhibition of death receptor signaling mediated necroptotic cell death in human Jurkat cell deficient in FADD assessed as inhibition of mitochondrial dysfunction after 24 hrs by in presence of TNFalpha; format: cell-based
[5] = Inhibition of death receptor signaling mediated necrotic cell death in mouse 3T3 cells assessed as cell viability after 24 hrs by ATP based viability assay in presence of TNFalpha and zVAD.fmk; conditions: NIH3T3
Jurkat [6] = assay: Effect on cell cycle in human Jurkat cells deficient in FADD assessed as cells in G2/M phase in presence of TNFalpha relative to control; format: functional
Jurkat [7] = assay: Inhibition of necrosis in human Jurkat cells assessed as early loss of plasma membrane integrity by bright field microscopy in presence of FasL, CHX and zVAD-fmk; format: functional, cell-based
Mus musculus = assay: Inhibition of necroptosis in icv dosed mouse middle cerebral artery occlusion induced ischemic injury model assessed as reduction of infarct volume; format: functional, organism-based
[8] = Inhibition of death receptor signaling mediated necroptotic cell death in human Jurkat cells deficient in FADD and expressing RIP kinase domain assessed as cell viability after 48 hrs by FACS in presence of AP1510; format: cell-based
[9] = Inhibition of death receptor signaling mediated necroptotic cell death in human Jurkat cells deficient in FADD and expressing FKBP12-based dimerization domain assessed as cell viability after 48 hrs by FACS in presence of AP1510, zVAD-fmk
Jurkat [10] = assay: Inhibition of necrosis in human Jurkat cells deficient in FADD assessed as inhibition of organelle swelling by bright field microscopy in presence of TNFalpha; format: functional, cell-based
[11] = Inhibition of death receptor signaling mediated necrotic cell death in mouse 3T3 cells assessed as cell viability after 24 hrs by ATP based viability assay in presence of FasL and zVAD.fmk; conditions: NIH3T3
[12] = Inhibition of death receptor signaling mediated necroptotic cell death in human Jurkat cells deficient in FADD and expressing RIP kinase assessed as cell viability after 48 hrs by FACS in presence of AP1510, zVAD-fmk; format: cell-based
NIH3T3 [13] = assay: Effect on morphology of nucleus in mouse 3T3 cells after 24 hrs by TO-PRO-3 staining in presence of TNFalpha and zVAD-fmk; format: functional, cell-based
[14] = Inhibition of death receptor signaling mediated necrotic cell death in mouse L929 cells assessed as cell viability after 24 hrs by ATP based viability assay in presence of TNFalpha
[15] = Inhibition of death receptor signaling mediated necroptotic cell death in human Jurkat cells deficient in FADD and expressing RIP K45M mutant assessed as cell viability after 48 hrs by FACS in presence of AP1510; format: cell-based
Jurkat [16] = assay: Inhibition of necrosis in human Jurkat cells deficient in FADD assessed as inhibition of appearance of translucent cytosol in presence of TNFalpha; format: functional, cell-based
Jurkat [17] = assay: Inhibition of necrosis in human Jurkat cells assessed as nuclear condensation by bright field microscopy in presence of FasL, CHX and zVAD-fmk; format: functional, cell-based
[18] = Inhibition of death receptor signaling mediated necroptotic cell death in human Jurkat cells deficient in FADD and expressing RIP kinase assessed as cell viability after 48 hrs by FACS in presence of AP1510; format: cell-based
Jurkat [19] = assay: Antiproliferative activity against human Jurkat cells; format: functional, cell-based
NIH3T3 [20] = assay: Effect on microtubule cytoskeleton in mouse 3T3 cells after 24 hrs by anti-tubulin immunofluorescence method in presence of TNFalpha and zVAD-fmk; format: functional, cell-based
Jurkat [21] = assay: Effect on apoptosis in human Jurkat cell assessed as chromatin marginalization by electron microscopy in presence of FasL and CHX; format: functional, cell-based
Jurkat [22] = assay: Effect on apoptosis in human Jurkat cell assessed as plasma membrane blebbing by electron microscopy in presence of FasL and CHX; format: functional, cell-based
[23] = Inhibition of death receptor signaling mediated necroptotic cell death in human Jurkat cells deficient in FADD and expressing RIP K45M mutant assessed as cell viability after 48 hrs by FACS in presence of AP1510, zVAD-fmk; format: cell-based
NIH3T3 [24] = assay: Effect on morphology of endoplasmic reticulum in mouse 3T3 cells after 24 hrs by anti-KDEL immunofluorescence in presence of TNFalpha and zVAD-fmk; format: functional, cell-based
[25] = Inhibition of death receptor signaling mediated necroptotic cell death in human Jurkat cells deficient in FADD and expressing RIP kinase domain assessed as cell viability after 48 hrs by FACS in presence of AP1510, zVAD-fmk; format: cell-based
Jurkat [26] = assay: Effect on cell cycle in human Jurkat cells deficient in FADD assessed as cells in G1 phase relative to control; format: functional
[27] = Inhibition of death receptor signaling mediated necroptotic cell death in human Jurkat cells deficient in FADD assessed as decreased levels of PE-conjugated LC3-II (autophagy marker) after 24 hrs by Western blot method in presence of TNFalpha; format: cell-based
[28] = Inhibition of death receptor signaling mediated necroptotic cell death in mouse 3T3 cells assessed as cell viability after 24 hrs by ATP based viability assay in presence of TNFalpha and zVAD-fmk; conditions: NIH3T3
[29] = Inhibition of death receptor signaling mediated necroptotic cell death in mouse 3T3 cells assessed as decreased levels of PE-conjugated autophagy marker LC3-II after 24 hrs by Western blot method in presence of FasL and zVAD-fmk; format: cell-based; conditions: NIH3T3
Jurkat [30] = assay: Effect on cell cycle in human Jurkat cells assessed as cells in G1 phase; format: functional, cell-based
Jurkat [31] = assay: Effect on cell cycle in human Jurkat cells assessed as cells in G2/M phase; format: functional, cell-based

In the case of `CN1C(=O)C(Cc2c[nH]c3ccccc23)NC1=S` (configuration not stated) [NECROSTATIN], the inhibition [1] is reported as “Active”, the Activity (Jurkat [2]) is reported as “inactive” and the Activity (Jurkat [3]) is reported as “inactive”. For the same molecule, the inhibition [4] was “Active”, the inhibition [5] was “Active” and the Activity (Jurkat [6]) was 12.1%. The inhibition (Jurkat [7]) was “Active”, the inhibition (Mus musculus) was “Active” and the inhibition [8] was “Active”. The inhibition [9] was “Active”, the inhibition (Jurkat [10]) was “Active” and the inhibition [11] was “Active”. The inhibition [12] was “Active”, the Activity (NIH3T3 [13]) was “inactive” and the inhibition [14] was “Active”. For the same molecule, the inhibition [15] was “Active”, the inhibition (Jurkat [16]) was “Active” and the inhibition (Jurkat [17]) was “Active”. The inhibition [18] was “Active”, the Activity (Jurkat [19]) was “inactive” and the Activity (NIH3T3 [20]) was “inactive”. The Activity (Jurkat [21]) was “inactive”, the Activity (Jurkat [22]) was “inactive” and the inhibition [23] was “Active”. For the same molecule, the Activity (NIH3T3 [24]) was “inactive”, the inhibition [25] was “Active” and the Activity (Jurkat [26]) was 41.5%. For the same molecule, the inhibition [27] was “Active”, the inhibition [28] was “Active” and the inhibition [29] was “Active”. For the same molecule, the Activity (Jurkat [30]) was “inactive” and the Activity (Jurkat [31]) was “inactive”.
